Experimental data as given in patent publication US10953015B2, “Use of adenosine receptor signaling to regulate P-gp function” (CORNELL UNIVERSITY, priority 2016, dated 2021).

Assays:
P-gp [1] = test: Western blot of P-gp expression in MCF7 breast cancer cells; type: cell-based, human; conditions: 1 μM, 24, 48, 72 hours
Protocol: MCF7 cells (human breast cancer cell line) were cultured in 24 well plates until they reached confluency. FIGS. 17A-17C are images of western blots of cells treated with vehicle control (i.e., DMSO) (“D”) or 1 μM of the broad spectrum AR agonist NECA (“N”) (FIG. 17A), 1 μM of the A2A AR agonist Lexiscan® (“L”) (FIG. 17B), or 1 μM of the A2B AR agonist BAY60 (“B”) (FIG. 17C), respectively for 24, 48, 72 hours. Cells were lysed with lysis buffer and expression levels of P-gp, MMP9, or VEGF analyzed by western blot. GAPDH was used as loading a control. FIG. 17D is a graph of experimental results showing that Lexiscan® down-regulates P-gp expression in MCF7 breast cancer cells. MCF7 breast cancer cells were treated with Lex (0.25 μM) concomitant with Rhodamine 123 (“Rho123”). […] Students T test, P<0.001. […] FIG. 17E is a fluorescence microscopy image showing MCF7 breast cancer cells grown on coverslips and treated with vehicle (DMSO, control), or A2 AR agonists, Lexiscan® (1 μM) or A1193 (1 μM) for 15 minutes in the presence of epirubicin. Cells were stained with an antibody to P-gp and mounted with DAPI. FIG. 17F is a graph of the fluorescent intensity quantified from FIG. 17E by measuring the mean fluorescent intensity (“MFI”) of epirubicin (pink) that is present in cell nuclei. ***=P<0.0001.

P-gp [2] = test: Western blot of P-gp expression in HCMEC-D3 cells; type: cell-based, human; conditions: 1 μM, up to 72 hours
Protocol: HCMEC-D3 and HBMVEC cells were plated in 12-well plates and were grown until they reached 100% confluency. The media was replaced with fresh media containing 1 μM of Lexiscan® or NECA with proper vehicle control (DMSO) for up to 72 hours. Cells were lysed by lysis buffer […] containing protease inhibitor cocktail and stored for later use (−70° C.). For cytoskeletal fraction analysis, cells were lysed in CSK buffer (100 mM NaCl, 300 mM sucrose, 3 mM MgCl2, 10 mM PIPES, pH 6.8). For brain samples, half of the brain was homogenized and lysed with […] lysis buffer and centrifuged at 17,000 g for 20 minutes and 1:10 diluted samples were used for analysis. Sample was loaded on 7% SDS PAGE at 100 V for 1 hour and transferred to the nitrocellulose paper. It was blocked with 1% BSA and incubated with anti-P-gp antibody (Genetex, 1:2000) overnight. Subsequently, it was washed with TBST and incubated with anti-rabbit secondary antibody (1:2000) for 1 hour. It was washed with TBST and developed with ECL substrate and exposed to x-ray film. Anti-GAPDH or −β-actin antibody was used as loading control. The intensity of band was analyzed with densitometric analysis and plotted as a graph for analysis of time-course effect of AR signaling on P-gp expression.

P-gp [3] = test: Microscopic (IFA) analysis of Rho123 uptake in primary human brain endothelial cells; type: cell-based; conditions: 2.5 μM Rho123, 1 μM agonist, 15 minutes to 24 hours
Protocol: Human brain endothelial cells and primary brain endothelial cells were plated onto 48-well plates until 100% confluence was reached, and media were replaced with fresh media containing Rho123 (2.5 μM) with different concentrations of Lexiscan®, NECA, or PSC833. Reaction was halted by adding 250 μl of ice-cold PBS. Plate was washed with 250 μl of ice-cold PBS 3 times and lysed with lysis buffer. Each sample was analyzed using Synergy Fluometer (Biotek), with excitation at 488 nm and emission at 523 nm. Concentration of Rho123 was analyzed using standard curve created by serial dilution of Rho123. Final concentration of Rho123 was normalized using protein concentration of lysate measured using Bradford assay (Bio-Rad). For microscopic analysis of Rho123 uptake, cells were cultured on coverslip and Rho123 was treated with or without Lexiscan® or NECA with DMSO as control. Reaction was terminated by adding ice-cold PBS and washed with ice-cold PBS 3 times. Cells were fixed with PFA and costained with anti-human P-gp. Cells were visualized with a Zeiss fluorescent microscope and captured with axiovision software. FIG. 4G is a schematic illustration of the Rho123 uptake assay.

P-gp [4] = test: P-gp expression in intestinal organoids (mean fluorescence intensity); type: cell-based; conditions: organoids from C57BL6 mouse intestine; 1 μM; 15 minutes
Protocol: Freshly isolated intestines from wildtype […] mice were cultured and grown to confluency to generate Organoids, which are 3D organotypic cultures derived from primary intestinal tissues (either tissue subunits or single cells), embryonic stem cells (“ESCs”), and induced pluripotent stem cells (“iPSCs”). Organoids were treated with 1 μM Lexiscan® or A1193 (A2A AR agonist) for 15 minutes, washed, and stained with antibodies to P-gp and DAPI. Mean fluorescent intensity was measured in each organoid. Data presented as a measure of P-gp expression between the two agonists. *=significance where P<0.05.
Applicants next evaluated whether A2A AR agonists can modulate P-gp expression in gut epithelial cells. Freshly isolated intestines from wildtype C57BL6 mice were cultured and grown to confluency to generate Organoids, which are three-dimensional organotypic cultures derived from primary intestinal tissues (either tissue subunits or single cells), embryonic stem cells (“ESCs”), or induced pluripotent stem cells (“iPSCs”). Organoids were treated with the A2A AR agonists Lexiscan® or A1193 for 15 minutes, washed, and stained with antibodies to P-gp and DAPI.

MMP9 = MMP9 in mouse brain endothelial cells after intravenous injection (IFA); type: in vivo; conditions: 0.05 mg/kg i.v.; 5 minutes
Protocol: Vehicle control (DMSO) or 0.05 mg/kg of Lexiscan® was injected intravenously into mice. Five minutes later, mice were sacrificed and frozen sections of the brain were stained with anti-MMP9 (red) or anti-GLUT-1 (green) antibodies. Nucleus was counterstained with DAPI (blue). The scale bar indicates 50 μm.

CCNC(=O)[C@H]1O[C@@H](n2cnc3c(N)ncnc32)[C@H](O)[C@@H]1O [NECA, (2S,3S,4R,5R)-5-(6-aminopurin-9-yl)-N-ethyl-3,4-dihydroxyoxolane-2-carboxamide]
P-gp expression (western blot) (P-gp [1]): decreased P-gp expression in cultured MCF7 cells at 48 and 72 hour time points
P-gp expression (western blot, vs DMSO control) (P-gp [2]): decreased P-gp expression for up to 4 hours
Rho123 accumulation visualized by IFA (P-gp [3]): increased Rho123 accumulation at later time points, beginning at 4 hours; this was maintained for up to 24 hours

CNC(=O)c1cnn(-c2nc(N)c3ncn([C@@H]4O[C@H](CO)[C@@H](O)[C@H]4O)c3n2)c1 [Lexiscan®, 1-[6-amino-9-[(2R,3R,4S,5R)-3,4-dihydroxy-5-(hydroxymethyl)oxolan-2-yl]purin-2-yl]-N-methylpyrazole-4-carboxamide]
P-gp expression (western blot) (P-gp [1]): decreased P-gp expression in cultured MCF7 cells at 48 and 72 hour time points
P-gp expression (mean fluorescent intensity) (P-gp [4]): significantly down-regulates P-gp expression in freshly isolated and cultured colonic organoids
P-gp expression (western blot, vs DMSO control) (P-gp [2]): rapid decrease in P-gp expression beginning at 30 minutes, which was maintained for up to 1 hour
MMP9 in mouse brain endothelial cells (MMP9): rapid increase of MMP9
Rho123 accumulation visualized by IFA (P-gp [3]): increased the accumulation of Rho123 beginning at 15 minutes to 1 hour
